Measurements: patent publication US9249115B2, “N,N1 substituted piperazines having combined antiaggregant, anticoagulant and vasodilatory activity, and method for producing same” (Vertex Closed Joint Stock Company, priority 2011, dated 2016)

Tests used:
[1] = test system: ADP-induced thrombocyte aggregation; test: ADP-induced thrombocyte aggregation, donor human thrombocyte enriched plasm; assay type: cell-based; details: ADP inductor; for MA, %: human thrombocyte plasm
Protocol: (§1) The study of antiaggregant and anticoagulant properties of N,N′-substituted piperazines on the sample of donor human blood. The blood was collected by donor ulnar vein punction with dry sharp needle without syringe. The administration of drugs that influence on thrombocyte function was cancelled in 7÷10 days before the experiment.
(§2) In graduated plastic centrifuge tube 1 ml of 3.8% basic trisodium citrate solution with pH=7.4 was placed. The ulnar vein was punctuated, the freely effluent blood was collected up to 10 ml mark, the mixture was instantly stirred to prevent air bubbles appearance. The collected and stabilized blood was split in two 5 ml portions in two tubes.
(§3) To obtain thrombocyte enriched plasm the stabilized blood was spinned at 1000 rpm (150 g) for 8 min at room temperature. The repeated spinning of the blood at 3200 rpm (2300 g) for 20 min at 22° C. yielded thrombocyte depleted plasm.
(§4) The study of anticoagulant activity was done within 2 h after thrombocyte enriched plasm obtaining. The plasm was normalized to achieve thrombocyte concentration of 200-250×10^9/L by addition of thrombocyte-free plasm. The concentration of thrombocytes was measured on SOLAR AR 2110 analyzer.
(§5) Antiaggregant properties of N,N′-substituted piperazines were evaluated by their influence on thrombocyte aggregation in tests with ADP-, collagen- and ristocetin-induced aggregation. To dissolve N,N′-substituted piperazines and to dilute reagents Tris-HCl-buffer with pH=7.4 was used.
(§6) As the general characteristic of thrombocyte aggregation activity the maximum amplitude (MA) of aggregation was taken on. That is the peak value of transmittance coefficient of the sample after aggregation agent introduction expressed in % relative to the transmittance of thrombocyte-free plasm. The response was registered on ascending linear segment of aggregation curve for 16 s.
(§7) The measurements were done using 4-channel CHRONO-LOG 490-4D analyzer (CHRONO-LOG, USA). The temperature in the cell was 37° C., the spinning speed of magnetic stirrer was 1200 rpm.
(§8) In a cuvette 0.5 ml of N,N′-substituted piperazine solution was placed, then 0.4 ml of normalized thrombocyte plasm was added. The mixture was stirred and incubated at 37° C. for 5 min. The cuvette was placed in aggregometer, then 0.05 ml of aggregation inductor solution was added (ADP or collagen or ristocetin). Thrombocyte aggregation was measured for 3 min.
ADP-induced reversible thrombocyte aggregation test utilized CHRONO-PAR ADP reagent (CHRONO-LOG, USA) with 10 mol concentration. Primary (reversible) thrombocyte aggregation was evaluated by the response on addition of ADP threshold dose (ADP concentration is 1 mol) to plasm.

[2] = test system: Collagen-induced thrombocyte aggregation; test: Collagen-induced thrombocyte aggregation, donor human thrombocyte enriched plasm; assay type: cell-based; details: collagen inductor; for MA, %: human thrombocyte plasm
Protocol: as §1, §2, §3, §4, §5, §6, §7, §8
In collagen-induced thrombocyte aggregation test CHRONO-PAR COLLAGEN reagent (CHRONO-LOG, USA) was diluted with buffer solution until collagen concentration reached 10 µg/ml.

[3] = test system: thrombocyte depleted plasm coagulation; test: Activated partial thromboplastin time (APTT), anticoagulant properties; assay type: biochemical, human; details: for APTT: thrombocyte depleted plasm
Protocol: as §1, §2, §3
To study anticoagulant properties of N,N′-substituted piperazines activated partial thromboplastin time (APTT) was measured. That is the ability of N,N′-substituted piperazines to increase thrombocyte depleted plasm coagulation time compared to the ability of control sample. The set of reagents for APTT determination (Russian Scientific Research Institute of Hematology and Transfusiology Ministry of Health of Russian Federation by Technical Regulation 9398-214-01966456-99) and COAG-A-MATE® XM coagulometer (ORGANON TEKNIKA, USA) were used.
The solutions of N,N′-substituted piperazines were mixed with thrombocyte depleted plasm at 1:1 ratio, then 0.1 ml of APTT reagent was added, the mixture was incubated in the cuvette for 5 min at 37° C., then 0.1 ml of 0.277% CaCl2 solution was added. The time of coagulation (in seconds) was measured.

[4] = test system: mesentery venules; test: Vasodilator properties, microcirculatory vessel responsiveness to noradrenalin, venules; assay type: in vivo, Wistar male rats
Protocol: (§9) Vasodilator properties of N,N′-substituted piperazines were evaluated according to their influence on microcirculatory vessel responsiveness.
(§10) The studies were done on Wistar male rats with mass of 300±30 g (laboratory animals nursery “Rappolovo”, RAMS). The animals were kept with unlimited food (standard ration for laboratory rats K-120 by <<Inform-korm>>, Russia) and water allowance.
(§11) The solutions of N,N′-substituted piperazines and physiological (control) solution were introduced via bolus injection within 1 min into caudal vein of non-anaesthetized animals according to the dosage of 5.0 ml per 1 kg. Immediately after the introduction the animals were put in separate standard cages for observation.
(§12) In 30 min after the injection the animals were anaesthetized (thiopental sodium, 60 mg/kg intraperitoneally). The loop of small intestine adjoined to mesoappendix was retrieved through inferomedian incision. To study microcirculation in mesentery venules and arterioles in transmitted light the rat was placed on thermostated microscope objective table. The application of noradrenalin solution (Aguettant, 2 mg/ml, Laboratoire AGUETTANT, France) was done directly on the mesentery (Furness J. B., Marshall J. M., 1974; Yantareva L. I., 2004).
(§13) The study of microcirculatory vessels was done with LUMAM I1 microscope (LOMO, Russia). The recording of video data was done with the camera (Optics and Electronics ISTA Ltd) attached to a personal computer. The processing of data was done with Video-Test 4.0 software (ISTA Ltd., Russia). The diameter of the vessel wall (D, m) before and after the application of noradrenalin and the starting time of blood flow slowdown induced by noradrenalin were measured (the measurements were done for 1 min after the application).

[5] = test system: mesentery arterioles; test: Vasodilator properties, microcirculatory vessel responsiveness to noradrenalin, arterioles; assay type: in vivo, Wistar male rats
Protocol: as §9, §10, §11, §12, §13

[6] = Homo sapiens, 1.25 mmol/L, read-out: (MA0-MAx): MA0 * 100%
[7] = Homo sapiens, 5.0 mmol/L, read-out: (MA0-MAx): MA0 * 100%
[8] = Homo sapiens, 7.5 mmol/L, read-out: (MA0-MAx): MA0 * 100%
[9] = 0.01 mmol/kg, noradrenalin 10^−6 g/ml
[10] = 0.025 mmol/kg, noradrenalin 10^−7 g/ml

Compound: O=C(O)/C=C/c1ccc(Cn2ccnc2)cc1 [Ozagrel, reference compound]
- MA, % ([1]; 1.25 mmol/L): 12.9 ± 2.1%
- MA, % ([1]; 2.50 mmol/L): 10.6 ± 2.5%
- MA, % ([1]; 5.0 mmol/L): 9.6 ± 2.5%
- MA, % ([1]; 7.5 mmol/L): 4.2 ± 1.2%
- inhibition at 1250 µM [1, 6]: 2.3%
- inhibition at 2500 µM ([1]; Homo sapiens, 2.50 mmol/L, read-out: (MA0-MAx): MA0 * 100%): 19.7%
- inhibition at 5000 µM [1, 7]: 63.6%
- inhibition at 7500 µM [1, 8]: 68.2%
- MA, % ([2]; 0.5 mmol/L): 74.3 ± 7.9%
- MA, % ([2]; 1.25 mmol/L): 64.1 ± 12.0%
- MA, % ([2]; 2.5 mmol/L): 60.0 ± 2.5%
- MA, % ([2]; 5.0 mmol/L): 54.0 ± 12.9%
- MA, % ([2]; 7.5 mmol/L): 34.2 ± 11.2%
- inhibition at 500 µM ([2]; Homo sapiens, 0.5 mmol/L, read-out: (MA0-MAx): MA0 * 100%): 3.1%
- inhibition at 1250 µM [2, 6]: 16.4%
- inhibition at 2500 µM ([2]; Homo sapiens, 2.5 mmol/L, read-out: (MA0-MAx): MA0 * 100%): 21.8%
- inhibition at 5000 µM [2, 7]: 29.6%
- inhibition at 7500 µM [2, 8]: 55.4%
- (APTTx-APTT0): APTT0 * 100% ([3]; 2.5 mmol/L): 7.2%
- APTT ([3]; 2.5 mmol/L): 51.8 ± 1.7 s
- (APTTx-APTT0): APTT0 * 100% ([3]; 4.1 mmol/L): 10.0%
- APTT ([3]; 4.1 mmol/L): 53.1 ± 3.0 s
- (APTTx-APTT0): APTT0 * 100% ([3]; 8.3 mmol/L): 19.9%
- APTT ([3]; 8.3 mmol/L): 57.9 ± 2.5 s
- (APTTx-APTT0): APTT0 * 100% ([3]; 12.5 mmol/L): 29.8%
- APTT ([3]; 12.5 mmol/L): 62.7 ± 2.1 s
- % of vessel constriction [4, 9]: 44%
- Blood flow slowdown, Latent period of slowdown [4, 9]: 32 ± 4 s
- % of vessel constriction [4, 10]: 27%
- Blood flow slowdown, Latent period of slowdown, s [4, 10]: No slowdown
- % of vessel constriction [5, 9]: 80%
- Blood flow slowdown, Latent period of slowdown [5, 9]: 27 ± 6 s
- % of vessel constriction [5, 10]: 27%
- Blood flow slowdown, Latent period of slowdown, s [5, 10]: No slowdown
